Laboratory results as given in the supplement of paper PMC10949913.

What was measured:
Conditions in all cases: 48 h
CU-ACC2 [1] = experiment: area under concentration-response curve (viability) (AUC (a.u.)); higher = less active
How it was run: (§1)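 AC50 and area under the curve values derive from fitted concentration-response curves, restricted to inhibitory or non-responding curve classes. The curves came from three adrenocortical carcinoma cell lines in 1,536-well plates, each receiving 23 nL of every library compound at 11 concentrations. Viability was read by CellTiter-Glo luminescence after 48 h, normalised per plate to vehicle and empty-well controls.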

NCI-H295R [2] = experiment: as above
How it was run: as §1

CU-ACC1 [3] = experiment: as above
How it was run: as §1

CU-ACC2 [4] = experiment: AC50 viability; higher = less potent
How it was run: as §1

NCI-H295R [5] = experiment: AC50 viability; higher = less potent
How it was run: as §1

CU-ACC1 [6] = experiment: AC50 viability; higher = less potent
How it was run: as §1

SMILES	area under concentration-response curve (CU-ACC2 [1])	area under concentration-response curve (NCI-H295R [2])	area under concentration-response curve (CU-ACC1 [3])	AC50 viability (CU-ACC2 [4])	AC50 viability (NCI-H295R [5])	AC50 viability (CU-ACC1 [6])
Cc1ccc([S+](=O)([O-])Nc2cc(Cl)ccc2C(=O)Nc2nc(-c3ccccc3)cs2)cc1	306	340	362	0.263 µM	2.63 µM	9.34 µM
O=C1c2c(O)ccc(O)c2C(=O)c2c(NCCNCCO)ccc(NCCNCCO)c21	512	514	458	9.34 µM	14.8 µM	16.6 µM
C[C@@H]1C[C@@H]([C@H](O)CC2CC(=O)NC(=O)C2)C(=O)[C@@H](C)C1	333	405	345	0.59 µM	2.95 µM	1.05 µM
CC(C)C1=N[N](C\2=C1C(=O)N\C(=N2)CC3=CC=C(OCCO)C=C3)C4=C(Cl)C=CC=C4Cl	183	289	241	0.0209 µM	0.0833 µM	0.0332 µM
CO[C@H]1/C=C\C=C(\C)C(=O)NC2=CC(=O)C(NCCN(C)C)=C(C[C@@H](C)C[C@H](OC)[C@H](O)[C@@H](C)/C=C(/C)[C@@H]1OC(N)=O)C2=O	460	451	335	0.833 µM	3.72 µM	1.66 µM
COC(=O)Nc1cc(Nc2cc(NC3CC3)c3ncc(C#N)n3n2)c(Cl)c(N2CCN(C)CC2)c1	506	443	466	6.61 µM	2.63 µM	6.61 µM
C[N]1C=NC=C1C(N)(C2=CC=C(Cl)C=C2)C3=CC\4=C(C=C3)N(C)C(=O)\C=C4C5=CC(=CC=C5)Cl (stereo unspecified)	298	397	336	11.8 µM	6.61 µM	11.8 µM
CO[C@H]1CC[C@H](N2C(=O)CNc3ncc(-c4ccc(C(C)(C)O)nc4)nc32)CC1	570	502	462	18.6 µM	18.6 µM	16.6 µM
CC(C)(O)CNc1ncc(-c2ccnc(Nc3ccncc3)n2)c(CC2CC2)n1	485	487	442	20.9 µM	18.6 µM	10.5 µM
c1cncc(CN2CCC(n3ncc4c(N5CCOCC5)nc(-c5ccc6[nH]ccc6c5)nc43)CC2)c1	472	446	442	14.8 µM	16.6 µM	20.9 µM
Cc1ccc(C(=O)Nc2cccc(C(F)(F)F)c2)cc1-c1ccc2nc(NCCN3CCOCC3)ncc2c1	576	546	481	18.6 µM	18.6 µM	10.5 µM
COC(C)(C)CCn1nc(Nc2c(C)cccc2C)c2cnc(Nc3ccc(OCCN4CCCC4)c(F)c3)nc21	467	513	506	14.8 µM	11.8 µM	14.8 µM
COC[C@H](NC(=O)c1cnc(C)s1)C(=O)N[C@@H](COC)C(=O)N[C@@H](Cc1ccccc1)C(=O)[C@@]1(C)CO1	255	276	220	0.0833 µM	0.0661 µM	0.166 µM
O=C(/C=C/c1cccc([S+](=O)([O-])Nc2ccccc2)c1)NO	429	404	362	5.25 µM	3.72 µM	3.72 µM
CC(C)c1cnn2c(NCc3ccccc3)cc(N[C@@H](CO)[C@H](O)CO)nc12	326	395	372	0.295 µM	1.48 µM	0.372 µM
COc1ccc2c(c[n+](C)c3c4cc5c(cc4ccc23)OCO5)c1OC	465	402	445	33.2 µM	20.9 µM	20.9 µM
C[N]1C=C(C=N1)C2=CC=C3N=CC\4=C(N(C(=O)\C=C4)C5=CC6=C(CCN6C(=O)C=C)C=C5)C3=C2	433	399	349	0.723 µM	0.723 µM	0.407 µM
COCCn1c2c([n+](Cc3cnccn3)c1C)C(=O)c1ccccc1C2=O	278	341	246	0.132 µM	3.32 µM	1.66 µM
NC(=O)c1cccc2c(NC(CN3CCC3)c3ccc(Cl)c(C(F)(F)F)c3)ncnc12 (stereo unspecified)	160	223	266	0.332 µM	1.18 µM	0.263 µM
CC(C)C[C@H](NC(=O)[C@@H](NC(=O)c1cccc(-c2ccccc2)n1)[C@@H](C)O)B(O)O	297	337	300	0.0723 µM	0.144 µM	0.0723 µM
Fc1cc(-c2cccc3ncc(-c4cnn(C5CCNCC5)c4)nc23)cc(F)c1CN1CCOCC1	437	428	390	13.2 µM	8.33 µM	11.8 µM
CC[C@@H]1C(=O)N(C)c2cnc(Nc3ccc(C(=O)NC4CCC(N5CCN(CC6CC6)CC5)CC4)cc3OC)nc2N1C(C)C (stereo partly specified)	450	429	472	9.34 µM	7.42 µM	7.42 µM
COc1ccc(F)c(F)c1C(=O)c1cnc(NC2CCN([S+](C)(=O)[O-])CC2)nc1N	364	435	409	1.48 µM	4.68 µM	2.35 µM
O=C(/C=C/c1ccc(CN(CCO)CCc2c[nH]c3ccccc23)cc1)NO	345	380	293	0.59 µM	1.66 µM	0.332 µM
N[C@@H](Cc1ccc(N(CCCl)CCCl)cc1)C(=O)O	303	385	267	9.34 µM	9.34 µM	10.5 µM
Clc1ccc(C(c2ccc(Cl)cc2)[n+]2ccn(CC(OCc3ccc(Cl)cc3Cl)c3ccc(Cl)cc3Cl)c2)cc1 (stereo unspecified)	528	445	442	11.8 µM	8.33 µM	13.2 µM
